Experimental data taken from PubChem BioAssay (NCI).
Where “and” joins values, the source holds several entries; their conditions need not be identical. Equal values may be shown once.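 All cell lines were grown in 96-well plates and treated with compound for 48 hours. At the GI50, growth is halved. At the TGI there is no net growth.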

Tests used:
Assay in all cases: NCI-60 cell line screen, 48 h
EKVX NSCLC = tested on: EKVX NSCLC
SK-MEL-28 melanoma = tested on: SK-MEL-28 melanoma
KM12 colon = tested on: KM12 colon
OVCAR-8 ovarian = tested on: OVCAR-8 ovarian
DU-145 prostate = tested on: DU-145 prostate
PC-3 prostate = tested on: PC-3 prostate
MOLT-4 leukemia = tested on: MOLT-4 leukemia
TK-10 renal = tested on: TK-10 renal
CCRF-CEM leukemia = tested on: CCRF-CEM leukemia
BT-549 breast = tested on: BT-549 breast

Row | Compound | TGI (EKVX NSCLC) | TGI (SK-MEL-28 melanoma) [µM] | TGI (KM12 colon) [µM] | TGI (OVCAR-8 ovarian) [µM] | TGI (DU-145 prostate) [µM] | TGI (PC-3 prostate) [µM] | TGI (MOLT-4 leukemia) [µM] | TGI (TK-10 renal) [µM] | TGI (CCRF-CEM leukemia) [µM] | TGI (BT-549 breast) [µM] | GI50 (EKVX NSCLC) | GI50 (SK-MEL-28 melanoma) [µM] | GI50 (KM12 colon) [µM] | GI50 (OVCAR-8 ovarian) [µM] | GI50 (DU-145 prostate) [µM] | GI50 (PC-3 prostate) [µM] | GI50 (MOLT-4 leukemia) [µM] | GI50 (TK-10 renal) [µM] | GI50 (CCRF-CEM leukemia)
1 | CC(C)=C[C@@H]1C[C@H](n2cc(C)c(=O)[nH]c2=O)ON1CCO | > 100 µM | > 100 | > 100 | > 100 | > 100 | > 100 | > 100 | > 100 | > 100 |  |  |  |  |  |  |  |  |  | 
2 | CC(C)(C)C1=Cc2cc3cc(C(C)(C)C)[nH]c(=O)c3cc2S(=O)(=O)N1 | 44.1 µM | > 100 | 94.6 | > 100 |  |  | 84.3 | 88.3 | 56.9 |  |  |  |  |  |  |  |  |  | 
3 | COc1ccc(Nc2nc3ccc(C(F)(F)F)cc3nc2C(=O)O)cc1OC | > 100 µM | > 100 | 33.7 | > 100 | > 100 | 94.6 | 43.5 |  |  | 71.5 |  |  |  |  |  |  |  |  | 
4 | CCC(C(=O)O)c1ccc(OCc2ccccc2)cc1 (configuration not stated) | > 100 µM | > 100 | > 100 |  |  |  | > 100 | > 100 | > 100 |  |  |  |  |  |  |  |  |  | 
5 | C/C(=N/NC(N)=S)c1ccc2ccccc2c1 | 37.3 µM | > 100 | > 100 | > 100 |  |  | > 100 | > 100 | > 100 |  |  |  |  |  |  |  |  |  | 
6 | CCC12C[N+]3([O-])CCc4c([nH]c5ccccc45)C(C(=O)OC)(c4cc5c(cc4OC)N(C)C4C(O)(C(=O)OC)C(OC(C)=O)C6(CC)C=CCN7CCC54C76)CC(C3)C1O2 (configuration not stated) | 18 µM | 0.959 | 15.9 | 54.1 |  |  | 3.44 | 26.8 | 6.87 |  |  |  |  |  |  |  |  |  | 
7 | O=C1NCCCc2nonc21 | > 100 µM | > 100 | > 100 | > 100 | > 100 | > 100 | > 100 | > 100 | > 100 |  |  |  |  |  |  |  |  |  | 
8 | CC(C)(C)N=c1n(C(C)(C)C)oc(=O)n1C(C)(C)C | > 100 µM | > 100 | > 100 | > 100 |  | > 100 | > 100 | > 100 | > 100 | > 100 |  |  |  |  |  |  |  |  | 
9 | CCOC(=O)C1=C(C(C)=O)CSC(c2ccccc2)=N1 | > 100 µM | > 100 | > 100 | > 100 |  |  | > 100 |  | > 100 |  |  |  |  |  |  |  |  |  | 
10 | CCC[C@H]1C(=O)N=C(N)N1C(=O)OCc1ccccc1 | > 100 µM | > 100 | > 100 | > 100 |  | > 100 | > 100 | > 100 |  | > 100 |  |  |  |  |  |  |  |  | 
11 | N#Cc1c(-c2ccccc2)/c(=C\Nc2ccc(Cl)cc2)c(=O)n2c1nc1ccccc12 |  | > 100 | > 100 | > 100 |  | > 100 |  | > 100 | 84.9 | > 100 |  |  |  |  |  |  |  |  | 
12 | COC(=O)c1c(C)cccc1/C=C1/Cc2c(C)cccc2C1=O | > 100 µM | > 100 | > 100 | > 100 | > 100 | > 100 | > 100 | > 100 |  | > 100 |  |  |  |  |  |  |  |  | 
13 | COc1cc(/C=C/C(=O)O)ccc1C(=O)O/C=C/c1ccccc1 | > 100 µM | > 100 | > 100 | > 100 |  |  | > 100 |  | > 100 |  |  |  |  |  |  |  |  |  | 
14 | CCOP(=O)(OCC)C1C(CO)OC(n2ccc(=O)[nH]c2=O)C1O (configuration not stated) | > 100 µM | > 100 | > 100 | > 100 |  | > 100 |  | > 100 |  | > 100 |  |  |  |  |  |  |  |  | 
15 | Oc1ccc(-c2nnc3sc(-c4ccc(F)cc4)nn23)cc1 | > 100 µM | > 100 | > 100 | > 100 | > 100 | > 100 | > 100 | > 100 | > 100 |  | 70.8 µM | > 100 | > 100 | 48.3 | 51.2 | > 100 | 33.6 | 69.8 | 55.7 µM
16 | CSC1CC2C(CC1(C)O)C2(C)C (configuration not stated) | 92.1 µM and > 100 µM | > 100 | > 100 | > 100 |  |  | > 100 | > 100 | > 100 |  | 13.3 µM and > 100 µM |  |  |  |  |  | > 100 |  | 49.3 µM and > 100 µM
17 | COC(=O)c1ccccc1/C=C1/Cc2ccccc2C1=O | > 100 µM | > 100 | 96.5 | > 100 | > 100 | > 100 | 78.5 | > 100 | 98.5 |  |  |  |  |  |  |  |  |  | 
18 | NC(=O)C(=O)N/N=C1/c2ccccc2CC1C1(O)C(=O)Nc2c(Cl)cc(Cl)cc21 (configuration not stated) | > 100 µM | > 100 | > 100 | > 100 |  |  | > 100 | > 100 | > 100 |  |  |  |  |  |  |  |  |  | 
19 | CN(C)C(CN)CC1=C(CC(CN)N(C)C)CCC1 (configuration not stated) | > 100 µM | > 100 | > 100 | > 100 |  |  | > 100 |  | > 100 |  |  |  |  |  |  |  |  |  | 
20 | COc1cc(OCc2ccc3oc(=O)c(-c4ccccc4)nc3c2)cc(OC)c1OC |  | > 100 |  | > 100 | > 100 | > 100 | > 100 | > 100 | > 100 | > 100 |  |  |  |  |  |  |  |  | 
21 | CCN(CC)CCNc1ccc2nnn3c4ccc(OC)cc4c(=O)c1c23 |  | 28.9 | 13.9 | 19.9 |  |  | 13.1 | 23.9 | 32.7 |  |  |  |  |  |  |  |  |  | 
22 | O=C(Nc1cccc2cnccc12)c1cc2c(cc1Cl)Sc1nccn1S2(=O)=O | 52.8 µM | 53.1 | 21.9 | 62.7 | 55.9 | > 100 | 59.4 | 59.2 |  | 40.2 |  |  |  |  |  |  |  |  | 
23 | O=C(CN1CCCCC1)CC(O)(C(F)(F)F)C(F)(F)F | > 100 µM | > 100 | > 100 | > 100 | > 100 | > 100 |  | > 100 | > 100 | > 100 |  |  |  |  |  |  |  |  | 
24 | COCOc1ccc(OC)cc1 | > 100 µM | > 100 | > 100 | > 100 |  |  | > 100 |  | > 100 |  |  |  |  |  |  |  |  |  | 
25 | C/C(=C\c1ccccc1)C(=O)CCN1CCOCC1 | 42.7 µM | 35.4 | 31.2 | 41.4 |  |  | > 62.3 |  | > 67.2 |  |  |  |  |  |  |  |  |  | 
26 | CCN(CC)CCOC(NC(C)=O)(c1ccccc1)c1ccccc1 | > 100 µM | > 100 | > 100 | > 100 | > 100 |  | > 100 | > 100 | > 100 |  |  |  |  |  |  |  |  |  | 
